# Target: T1, human KCNK13 (Homo sapiens, UniProt Q9HB14)
# T1 construct: expressed in transfected cells
# T1 sequence (Q9HB14 1-408): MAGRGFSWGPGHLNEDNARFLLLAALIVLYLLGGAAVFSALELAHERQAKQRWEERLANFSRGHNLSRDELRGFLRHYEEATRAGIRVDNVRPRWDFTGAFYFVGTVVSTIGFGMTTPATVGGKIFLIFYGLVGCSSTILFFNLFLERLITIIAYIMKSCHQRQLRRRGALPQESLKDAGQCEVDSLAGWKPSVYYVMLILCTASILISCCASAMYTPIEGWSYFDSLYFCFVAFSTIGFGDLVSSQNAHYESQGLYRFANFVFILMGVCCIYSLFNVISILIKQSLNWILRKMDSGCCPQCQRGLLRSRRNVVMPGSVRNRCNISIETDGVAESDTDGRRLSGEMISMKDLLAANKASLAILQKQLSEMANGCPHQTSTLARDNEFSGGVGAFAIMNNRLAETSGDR
# Test: KCNK13 antagonist activity, thallium (Tl+) flux FLIPR assay
# Assay type: cell-based
# Conditions: not given
# Protocol: KCNK13 antagonist activity was determined by measuring changes in intracellular Thallium (Tl^+) concentrations using a Tl^+ sensitive fluorescent dye. The changes in fluorescent signal were monitored by Fluorescent Imaging Plate Reader (FLIPR™) technology available from Molecular Devices, LLC, US. KCNK13 mediated increases in intracellular Tl+concentration were readily detected by addition of a thallium sulfate stimulus. 24 hours prior to the assay, human embryonic kidney 293 cells (HEK 293 cells) stably expressing human KCNK13 were seeded in cell culture medium in PDL coated black, clear-bottom 384-well plates (commercially available from Corning Inc., 356663) and grown overnight at 37° C., 5% CO2. On the day of the assay, cell culture media was removed and cells were loaded with potassium dye (commercially sold by Molecular Devices, LLC, US, R8222) for 1 hour at room temperature in the dark. Test compounds (at 10 point half log concentration response curves from […]) were added to cells for 15 minutes prior to the addition of thallium sulfate to all wells. The IC50 values were determined from ten point concentration response curves. Curves were generated using the average of two wells for each data point.
row,Compound,IC50 [nM]
1,"Nc1nonc1-c1nc2cccnc2n1Cc1ccc(Cl)nc1 [Example 23, 4-[3-[(6-chloropyridin-3-yl)methyl]imidazo[4,5-b]pyridin-2-yl]-1,2,5-oxadiazol-3-amine]",< 50
2,"Cc1nonc1-c1nc2cccnc2n1Cc1ccc(Cl)nc1 [Example 24, 3-[3-[(6-chloropyridin-3-yl)methyl]imidazo[4,5-b]pyridin-2-yl]-4-methyl-1,2,5-oxadiazole]",< 100
3,"Nc1nonc1-c1nc2cc(F)cnc2n1Cc1ccc(Cl)nc1 [Example 29, 4-[3-[(6-chloropyridin-3-yl)methyl]-6-fluoro-imidazo[4,5-b]pyridin-2-yl]-1,2,5-oxadiazol-3-amine]",< 50
4,"Cc1nonc1-c1nc2c(F)cccc2n1Cc1ccc(Cl)nc1 [Example 39, 3-[1-[(6-chloropyridin-3-yl)methyl]-4-fluoro-benzimidazol-2-yl]-4-methyl-1,2,5-oxadiazole]",< 200

# Same assay, conditions: HEK 293 cells stably expressing human KCNK13; Tl+ sensitive dye, FLIPR; compounds 15 minutes prior to thallium sulfate; 10 point half log curves from 10 PM; read-out: hKCNK13 IC50
row,IC50 [nM],Compound
1,< 500,"Nc1nonc1-c1nc2cccnc2n1Cc1ccc(C(F)(F)F)nc1 [Example 19, 4-[3-[[6-(trifluoromethyl)pyridin-3-yl]methyl]imidazo[4,5-b]pyridin-2-yl]-1,2,5-oxadiazol-3-amine]"
2,< 1000,"Cc1nonc1-c1nc2cccnc2n1Cc1cccnn1 [Example 20, 3-methyl-4-[3-(pyridazin-3-ylmethyl)imidazo[4,5-b]pyridin-2-yl]-1,2,5-oxadiazole]"
3,< 50,"Nc1nonc1-c1nc2c(F)ccc(F)c2n1Cc1cccnc1 [Example 22, 4-[4,7-difluoro-1-(pyridin-3-ylmethyl)benzimidazol-2-yl]-1,2,5-oxadiazol-3-amine]"
4,< 50,"Cc1nonc1-c1nc2cc(F)cc(F)c2n1Cc1cccnc1 [Example 27, 3-[5,7-difluoro-1-(pyridin-3-ylmethyl)benzimidazol-2-yl]-4-methyl-1,2,5-oxadiazole]"
5,< 50,"N#Cc1ncc(Cn2c(-c3nonc3N)nc3c(F)ccc(F)c32)cn1 [Example 28, 5-[[2-(4-amino-1,2,5-oxadiazol-3-yl)-4,7-difluoro-benzimidazol-1-yl]methyl]pyrimidine-2-carbonitrile]"
6,< 50,"Nc1nonc1-c1nc2cc(Br)ccc2n1Cc1cccnc1 [Example 33, 4-[5-bromo-1-(pyridin-3-ylmethyl)benzimidazol-2-yl]-1,2,5-oxadiazol-3-amine]"
7,< 1000,"CN(C)c1ccc2c(c1)nc(-c1nonc1N)n2Cc1cccnc1 [Example 34, 4-[5-(dimethylamino)-1-(pyridin-3-ylmethyl)benzimidazol-2-yl]-1,2,5-oxadiazol-3-amine]"
8,< 50,"N#Cc1cnc(Cn2c(-c3nonc3N)nc3cccc(F)c32)cn1 [Example 35, 5-[[2-(4-amino-1,2,5-oxadiazol-3-yl)-7-fluoro-benzimidazol-1-yl]methyl]pyrazine-2-carbonitrile]"
9,< 100,"N#Cc1cnc(Cn2c(-c3nonc3N)nc3c(F)cccc32)cn1 [Example 36, 5-[[2-(4-amino-1,2,5-oxadiazol-3-yl)-4-fluoro-benzimidazol-1-yl]methyl]pyrazine-2-carbonitrile]"
10,< 50,"Cc1nonc1-c1nc2ccccc2n1Cc1ccc(C#N)nc1 [Example 37, 5-[[2-(4-methyl-1,2,5-oxadiazol-3-yl)benzimidazol-1-yl]methyl]pyridine-2-carbonitrile]"
11,< 100,"Cc1nonc1-c1nc2c(F)cccc2n1Cc1ccc(C#N)nc1 [Example 40, 5-[[4-fluoro-2-(4-methyl-1,2,5-oxadiazol-3-yl)benzimidazol-1-yl]methyl]pyridine-2-carbonitrile]"
12,< 100,"Cc1nonc1-c1nc2cccc(F)c2n1Cc1cnc(C#N)cn1 [Example 41, 5-[[7-fluoro-2-(4-methyl-1,2,5-oxadiazol-3-yl)benzimidazol-1-yl]methyl]pyrazine-2-carbonitrile]"
13,< 1000,"Cc1nonc1-c1nc2c(F)cccc2n1Cc1cnc(C#N)cn1 [Example 42, 5-[[4-fluoro-2-(4-methyl-1,2,5-oxadiazol-3-yl)benzimidazol-1-yl]methyl]pyrazine-2-carbonitrile]"
14,< 1000,"COc1ccc(Cn2c(-c3nonc3C)nc3cccc(F)c32)cn1 [Example 43, 3-[7-fluoro-1-[(6-methoxypyridin-3-yl)methyl]benzimidazol-2-yl]-4-methyl-1,2,5-oxadiazole]"
15,< 50,"Cc1nonc1-c1nc2cccc(F)c2n1Cc1cnc(C#N)nc1 [Example 44, 5-[[7-fluoro-2-(4-methyl-1,2,5-oxadiazol-3-yl)benzimidazol-1-yl]methyl]pyrimidine-2-carbonitrile]"
16,< 100,"Cc1nonc1-c1nc2c(F)cccc2n1Cc1cnc(C#N)nc1 [Example 45, 5-[[4-fluoro-2-(4-methyl-1,2,5-oxadiazol-3-yl)benzimidazol-1-yl]methyl]pyrimidine-2-carbonitrile]"
17,< 100,"Cc1nonc1-c1nc2cccc(F)c2n1Cc1ccc(C#N)nn1 [Example 46, 6-[[7-fluoro-2-(4-methyl-1,2,5-oxadiazol-3-yl)benzimidazol-1-yl]methyl]pyridazine-3-carbonitrile]"
18,< 200,"Cc1nonc1-c1nc2c(F)cccc2n1Cc1ccc(C#N)nn1 [Example 47, 6-[[4-fluoro-2-(4-methyl-1,2,5-oxadiazol-3-yl)benzimidazol-1-yl]methyl]pyridazine-3-carbonitrile]"
19,< 1000,"CCOc1ccc(Cn2c(-c3nonc3C)nc3c(F)cccc32)cn1 [Example 48, 3-[1-[(6-ethoxypyridin-3-yl)methyl]-4-fluoro-benzimidazol-2-yl]-4-methyl-1,2,5-oxadiazole]"
20,< 100,"Cc1nonc1-c1nc2cccnc2n1Cc1ccc(C#N)nc1 [Example 50, 5-[[2-(4-methyl-1,2,5-oxadiazol-3-yl)imidazo[4,5-b]pyridin-3-yl]methyl]pyridine-2-carbonitrile]"
21,< 500,"N#Cc1ccc(Cn2c(-c3nonc3N)nc3cccnc32)cn1 [Example 51, 5-[[2-(4-amino-1,2,5-oxadiazol-3-yl)imidazo[4,5-b]pyridin-3-yl]methyl]pyridine-2-carbonitrile]"
22,< 100,"Cc1nonc1-c1nc2cccc(F)c2n1Cc1ccc(C#N)nc1 [Example 52, 5-[[7-fluoro-2-(4-methyl-1,2,5-oxadiazol-3-yl)benzimidazol-1-yl]methyl]pyridine-2-carbonitrile]"
23,< 100,"COc1ccc(Cn2c(-c3nonc3C)nc3ccccc32)cn1 [Example 53, 3-[1-[(6-methoxypyridin-3-yl)methyl]benzimidazol-2-yl]-4-methyl-1,2,5-oxadiazole]"
24,< 500,"Cc1nonc1-c1nc2ccccc2n1Cc1ccc(O)nc1 [Example 54, 5-[[2-(4-methyl-1,2,5-oxadiazol-3-yl)benzimidazol-1-yl]methyl]pyridin-2-ol]"
25,< 100,"Cc1nonc1-c1nc2ccc(F)cc2n1Cc1ccc(C#N)nc1 [Example 55, 5-[[6-fluoro-2-(4-methyl-1,2,5-oxadiazol-3-yl)benzimidazol-1-yl]methyl]pyridine-2-carbonitrile]"
26,< 100,"Cc1nonc1-c1nc2ccc(F)c(F)c2n1Cc1cccnc1 [Example 56, 3-[6,7-difluoro-1-(pyridin-3-ylmethyl)benzimidazol-2-yl]-4-methyl-1,2,5-oxadiazole]"
27,< 100,"Cc1nonc1-c1nc2ccccc2n1Cc1ccc(S(C)(=O)=O)nc1 [Example 58, 3-methyl-4-[1-[(6-(methylsulfonyl)pyridin-3-yl)methyl]benzimidazol-2-yl]-1,2,5-oxadiazole]"
28,< 200,"Nc1nonc1-c1nc2cccnc2n1Cc1cccnc1 [Example 59, 4-[3-(pyridin-3-ylmethyl)imidazo[4,5-b]pyridin-2-yl]-1,2,5-oxadiazol-3-amine]"
29,< 200,"Cc1ncc(Cn2c(-c3nonc3C)nc3ccccc32)cn1 [Example 64, 3-methyl-4-[1-[(2-methylpyrimidin-5-yl)methyl]benzimidazol-2-yl]-1,2,5-oxadiazole]"
30,< 50,"Cc1nonc1-c1nc2c(F)ccc(F)c2n1Cc1cccnc1 [Example 65, 3-[4,7-difluoro-1-(pyridin-3-ylmethyl)benzimidazol-2-yl]-4-methyl-1,2,5-oxadiazole]"

row,Compound,IC50 [nM]
1,"Cc1nonc1-c1nc2cccc(F)c2n1Cc1ccc(Cl)nc1 [Example 38, 3-[1-[(6-chloropyridin-3-yl)methyl]-7-fluoro-benzimidazol-2-yl]-4-methyl-1,2,5-oxadiazole]",< 50
2,"Cc1nonc1-c1nc2ccccc2n1Cc1ccc(Cl)nc1 [Example 60, 3-[1-[(6-chloropyridin-3-yl)methyl]benzimidazol-2-yl]-4-methyl-1,2,5-oxadiazole]",< 100
3,"Cc1ccc(Cn2c(-c3nonc3C)nc3ccccc32)cn1 [Example 63, 3-methyl-4-[1-[(6-methylpyridin-3-yl)methyl]benzimidazol-2-yl]-1,2,5-oxadiazole]",< 200
